Reference: ChEMBL document CHEMBL1255213, “Bottromycin derivatives: efficient chemical modifications of the ester moiety and evaluation of anti-MRSA and anti-VRE activities” (2010)
Values after ≈ are worked out from the molar mass of the structure shown.

Assays:
Assay type in all cases: functional
Staphylococcus aureus [1] = assay: Antimicrobial activity against methicillin-resistant Staphylococcus aureus 92-1191 by standard serial-dilution technique
Staphylococcus aureus [2] = assay: Antimicrobial activity against Staphylococcus aureus FDA209P by standard serial-dilution technique
Staphylococcus aureus [3] = assay: Antimicrobial activity against methicillin-resistant Staphylococcus aureus assessed as rate of residual activity; parameters: concentration or dose not given beside the values
Enterococcus faecium [4] = assay: Antimicrobial activity against Enterococcus faecium NCTC 12201 by standard serial-dilution technique
Staphylococcus aureus [5] = assay: Antimicrobial activity against Staphylococcus aureus Smith by standard serial-dilution technique
Enterococcus faecium [6] = assay: Antimicrobial activity against Enterococcus faecium NCTC 12203 by standard serial-dilution technique
Staphylococcus aureus [7] = assay: Antimicrobial activity against methicillin-resistant Staphylococcus aureus HH1 by standard serial-dilution technique

| SMILES | MIC (Staphylococcus aureus [1]) | MIC (Staphylococcus aureus [2]) | Activity (Staphylococcus aureus [3]) | MIC (Enterococcus faecium [4]) | MIC (Staphylococcus aureus [5]) | MIC (Enterococcus faecium [6]) | MIC (Staphylococcus aureus [7]) |
| --- | --- | --- | --- | --- | --- | --- | --- |
| CC(C)[C@@H]1NC(=O)[C@@H]2[C@H](C)CCN2C(=O)CN/C(=N\[C@H](C(=O)N[C@H](C(=O)N[C@H](CC(=O)N2CCN(Cc3ccccc3)CC2)c2nccs2)[C@@H](C)c2ccccc2)C(C)(C)C)[C@H](C(C)(C)C)NC1=O | 4 µg/mL (≈ 4.14 µM) | 4 µg/mL (≈ 4.14 µM) | 84% | 4 µg/mL (≈ 4.14 µM) | 4 µg/mL (≈ 4.14 µM) | 4 µg/mL (≈ 4.14 µM) | 4 µg/mL (≈ 4.14 µM) |
| CC(C)[C@@H]1NC(=O)[C@@H]2[C@H](C)CCN2C(=O)CN/C(=N\[C@H](C(=O)N[C@H](C(=O)N[C@H](CC(=O)NN)c2nccs2)[C@@H](C)c2ccccc2)C(C)(C)C)[C@H](C(C)(C)C)NC1=O | 32 µg/mL (≈ 38.9 µM) | 16 µg/mL (≈ 19.4 µM) | 86% | 8 µg/mL (≈ 9.72 µM) | 16 µg/mL (≈ 19.4 µM) | 4 µg/mL (≈ 4.86 µM) | 16 µg/mL (≈ 19.4 µM) |
| CCCSC(=O)C[C@@H](NC(=O)[C@@H](NC(=O)[C@@H](/N=C1\NCC(=O)N2CC[C@@H](C)[C@H]2C(=O)N[C@@H](C(C)C)C(=O)N[C@H]1C(C)(C)C)C(C)(C)C)[C@@H](C)c1ccccc1)c1nccs1 | 1 µg/mL (≈ 1.15 µM) | 0.5 µg/mL (≈ 0.577 µM) | 0% | 1 µg/mL (≈ 1.15 µM) | 0.5 µg/mL (≈ 0.577 µM) | ≤ 0.25 µg/mL | ≤ 0.25 µg/mL |
| CC(C)[C@@H]1NC(=O)[C@@H]2[C@H](C)CCN2C(=O)CN/C(=N\[C@H](C(=O)N[C@H](C(=O)N[C@H](CC(=O)N2CCOCC2)c2nccs2)[C@@H](C)c2ccccc2)C(C)(C)C)[C@H](C(C)(C)C)NC1=O | 32 µg/mL (≈ 36.4 µM) | 16 µg/mL (≈ 18.2 µM) | 100% | 16 µg/mL (≈ 18.2 µM) | 8 µg/mL (≈ 9.11 µM) | 4 µg/mL (≈ 4.56 µM) | 16 µg/mL (≈ 18.2 µM) |
| CCC(=O)C[C@@H](NC(=O)[C@@H](NC(=O)[C@@H](/N=C1\NCC(=O)N2CC[C@@H](C)[C@H]2C(=O)N[C@@H](C(C)C)C(=O)N[C@H]1C(C)(C)C)C(C)(C)C)[C@@H](C)c1ccccc1)c1nccs1 | 2 µg/mL (≈ 2.44 µM) | 1 µg/mL (≈ 1.22 µM) | 100% | 2 µg/mL (≈ 2.44 µM) | 1 µg/mL (≈ 1.22 µM) | 1 µg/mL (≈ 1.22 µM) | 2 µg/mL (≈ 2.44 µM) |
| CC(C)[C@@H]1NC(=O)[C@@H]2[C@H](C)CCN2C(=O)CN/C(=N\[C@H](C(=O)N[C@H](C(=O)N[C@H](CC(=O)NCc2ccccc2)c2nccs2)[C@@H](C)c2ccccc2)C(C)(C)C)[C@H](C(C)(C)C)NC1=O | 8 µg/mL (≈ 8.91 µM) | 8 µg/mL (≈ 8.91 µM) | 71% | 8 µg/mL (≈ 8.91 µM) | 8 µg/mL (≈ 8.91 µM) | 2 µg/mL (≈ 2.23 µM) | 8 µg/mL (≈ 8.91 µM) |
| CCSC(=O)C[C@@H](NC(=O)[C@@H](NC(=O)[C@@H](/N=C1\NCC(=O)N2CC[C@@H](C)[C@H]2C(=O)N[C@@H](C(C)C)C(=O)N[C@H]1C(C)(C)C)C(C)(C)C)[C@@H](C)c1ccccc1)c1nccs1 | 0.5 µg/mL (≈ 0.586 µM) | ≤ 0.25 µg/mL | 0% | ≤ 0.25 µg/mL | 0.5 µg/mL (≈ 0.586 µM) | ≤ 0.25 µg/mL | ≤ 0.25 µg/mL |
| CC(C)[C@@H]1NC(=O)[C@@H]2[C@H](C)CCN2C(=O)CN/C(=N\[C@H](C(=O)N[C@H](C(=O)N[C@H](CC(=O)N2CCSCC2)c2nccs2)[C@@H](C)c2ccccc2)C(C)(C)C)[C@H](C(C)(C)C)NC1=O | 8 µg/mL (≈ 8.95 µM) | 8 µg/mL (≈ 8.95 µM) | 100% | 4 µg/mL (≈ 4.47 µM) | 4 µg/mL (≈ 4.47 µM) | 4 µg/mL (≈ 4.47 µM) | 8 µg/mL (≈ 8.95 µM) |
| CC(=O)NC[C@H]1CN(c2ccc(N3CCOCC3)c(F)c2)C(=O)O1 [LINEZOLID] | – | – | – | 2 µg/mL (≈ 5.93 µM) | – | 2 µg/mL (≈ 5.93 µM) | – |
| CC(C)[C@@H]1NC(=O)[C@@H]2[C@H](C)CCN2C(=O)CN/C(=N\[C@H](C(=O)N[C@H](C(=O)N[C@H](CC(=O)N2CCNCC2)c2nccs2)[C@@H](C)c2ccccc2)C(C)(C)C)[C@H](C(C)(C)C)NC1=O | 128 µg/mL (≈ 146 µM) | 64 µg/mL (≈ 73 µM) | – | 32 µg/mL (≈ 36.5 µM) | 32 µg/mL (≈ 36.5 µM) | 32 µg/mL (≈ 36.5 µM) | 64 µg/mL (≈ 73 µM) |
| CC(C)[C@@H]1NC(=O)[C@@H]2[C@H](C)CCN2C(=O)CN/C(=N\[C@H](C(=O)N[C@H](C(=O)N[C@H](CC(=O)O)c2nccs2)[C@@H](C)c2ccccc2)C(C)(C)C)[C@H](C(C)(C)C)NC1=O | 128 µg/mL (≈ 158 µM) | 64 µg/mL (≈ 79.1 µM) | – | 128 µg/mL (≈ 158 µM) | 64 µg/mL (≈ 79.1 µM) | 32 µg/mL (≈ 39.6 µM) | 64 µg/mL (≈ 79.1 µM) |
| CCCC(=O)C[C@@H](NC(=O)[C@@H](NC(=O)[C@@H](/N=C1\NCC(=O)N2CC[C@@H](C)[C@H]2C(=O)N[C@@H](C(C)C)C(=O)N[C@H]1C(C)(C)C)C(C)(C)C)[C@@H](C)c1ccccc1)c1nccs1 | 2 µg/mL (≈ 2.39 µM) | 1 µg/mL (≈ 1.2 µM) | 100% | 2 µg/mL (≈ 2.39 µM) | 1 µg/mL (≈ 1.2 µM) | 0.5 µg/mL (≈ 0.599 µM) | 1 µg/mL (≈ 1.2 µM) |
| C#CCN1CCN(C(=O)C[C@@H](NC(=O)[C@@H](NC(=O)[C@@H](/N=C2\NCC(=O)N3CC[C@@H](C)[C@H]3C(=O)N[C@@H](C(C)C)C(=O)N[C@H]2C(C)(C)C)C(C)(C)C)[C@@H](C)c2ccccc2)c2nccs2)CC1 | 32 µg/mL (≈ 35 µM) | 16 µg/mL (≈ 17.5 µM) | 67% | 16 µg/mL (≈ 17.5 µM) | 16 µg/mL (≈ 17.5 µM) | 16 µg/mL (≈ 17.5 µM) | 16 µg/mL (≈ 17.5 µM) |
| C#CCNC(=O)C[C@@H](NC(=O)[C@@H](NC(=O)[C@@H](/N=C1\NCC(=O)N2CC[C@@H](C)[C@H]2C(=O)N[C@@H](C(C)C)C(=O)N[C@H]1C(C)(C)C)C(C)(C)C)[C@@H](C)c1ccccc1)c1nccs1 | 16 µg/mL (≈ 18.9 µM) | 8 µg/mL (≈ 9.46 µM) | 100% | 4 µg/mL (≈ 4.73 µM) | 8 µg/mL (≈ 9.46 µM) | 2 µg/mL (≈ 2.36 µM) | 8 µg/mL (≈ 9.46 µM) |
| CC(C)SC(=O)C[C@@H](NC(=O)[C@@H](NC(=O)[C@@H](/N=C1\NCC(=O)N2CC[C@@H](C)[C@H]2C(=O)N[C@@H](C(C)C)C(=O)N[C@H]1C(C)(C)C)C(C)(C)C)[C@@H](C)c1ccccc1)c1nccs1 | 1 µg/mL (≈ 1.15 µM) | 0.5 µg/mL (≈ 0.577 µM) | 0% | 1 µg/mL (≈ 1.15 µM) | 0.5 µg/mL (≈ 0.577 µM) | ≤ 0.25 µg/mL | 0.5 µg/mL (≈ 0.577 µM) |
| CC(C)[C@@H]1NC(=O)[C@@H]2[C@H](C)CCN2C(=O)CN/C(=N\[C@H](C(=O)N[C@H](C(=O)N[C@H](CC(=O)N2CCN(C(=O)OC(C)(C)C)CC2)c2nccs2)[C@@H](C)c2ccccc2)C(C)(C)C)[C@H](C(C)(C)C)NC1=O | 8 µg/mL (≈ 8.19 µM) | 8 µg/mL (≈ 8.19 µM) | 42% | 8 µg/mL (≈ 8.19 µM) | 4 µg/mL (≈ 4.09 µM) | 4 µg/mL (≈ 4.09 µM) | 8 µg/mL (≈ 8.19 µM) |
| CC(C)[C@@H]1NC(=O)[C@@H]2[C@H](C)CCN2C(=O)CN/C(=N\[C@H](C(=O)N[C@H](C(=O)N[C@H](CNC(=O)NCc2ccccc2)c2nccs2)[C@@H](C)c2ccccc2)C(C)(C)C)[C@H](C(C)(C)C)NC1=O | 16 µg/mL (≈ 17.5 µM) | 8 µg/mL (≈ 8.76 µM) | 100% | 8 µg/mL (≈ 8.76 µM) | 16 µg/mL (≈ 17.5 µM) | 4 µg/mL (≈ 4.38 µM) | 16 µg/mL (≈ 17.5 µM) |
| CC(C)[C@@H]1NC(=O)[C@@H]2[C@H](C)CCN2C(=O)CN/C(=N\[C@H](C(=O)N[C@H](C(=O)N[C@H](CNC(=O)N2CCSC2)c2nccs2)[C@@H](C)c2ccccc2)C(C)(C)C)[C@H](C(C)(C)C)NC1=O | 4 µg/mL (≈ 4.47 µM) | 4 µg/mL (≈ 4.47 µM) | 100% | 4 µg/mL (≈ 4.47 µM) | 4 µg/mL (≈ 4.47 µM) | 2 µg/mL (≈ 2.23 µM) | 4 µg/mL (≈ 4.47 µM) |
| CC(C)[C@@H]1NC(=O)[C@@H]2[C@H](C)CCN2C(=O)CN/C(=N\[C@H](C(=O)N[C@H](C(=O)N[C@H](CC(=O)N2CCSC2)c2nccs2)[C@@H](C)c2ccccc2)C(C)(C)C)[C@H](C(C)(C)C)NC1=O | 8 µg/mL (≈ 9.09 µM) | 4 µg/mL (≈ 4.54 µM) | 100% | 8 µg/mL (≈ 9.09 µM) | 4 µg/mL (≈ 4.54 µM) | 2 µg/mL (≈ 2.27 µM) | 8 µg/mL (≈ 9.09 µM) |
| CN[C@H](CC(C)C)C(=O)N[C@H]1C(=O)N[C@@H](CC(N)=O)C(=O)N[C@H]2C(=O)N[C@H]3C(=O)N[C@H](C(=O)N[C@H](C(=O)O)c4cc(O)cc(O)c4-c4cc3ccc4O)[C@H](O)c3ccc(c(Cl)c3)Oc3cc2cc(c3O[C@@H]2O[C@H](CO)[C@@H](O)[C@H](O)[C@H]2O[C@H]2C[C@](C)(N)[C@H](O)[C@H](C)O2)Oc2ccc(cc2Cl)[C@H]1O [VANCOMYCIN] | – | – | – | > 128 µg/mL | – | > 128 µg/mL | – |
